Measurements: patent US9820981B2, “Treatment of retinopathy of prematurity (ROP)” (The Cleveland Clinic Foundation, priority 2013, dated 2017)

What was measured:
[1] = test system: oxygen-induced retinopathy (OIR); experiment: Oxygen-induced retinopathy (OIR) mouse model, retinal flatmounts; assay type: in vivo; settings: for reduction of capillary dropout in retinal flatmounts (percent avascular area of total retinal area): P17, each at optimal dose (10 μg/g FG-4592, 200 μg/g DMOG) i.p. at P6, P8, P10
Protocol: The PBS-treated pup has an ischemic, posterior retina compared to the FG-4592-treated pup. Pups were treated with intraperitoneal injection of 10 μg/g body weight FG-4592 at P6, P8, and P10 while in 75% hyperoxia. At P12, pups were removed to room air with their nursing mothers and sacrificed at P17. Eyes were removed and fixed for 15 minutes in fresh 4% paraformaldehyde (PFA) before isolating whole retina, permeabilizing and lectin staining, then flat mounting for fluorescence microscopy.
An automated computer program (ImagePro version 7.0) measures capillary dropout and neovascular tufting seen in 3B.
The mouse model of ROP used in this study is based on a well-established protocol by Smith et al. (L. E. Smith, E. Wesolowski, A. McLellan, S. K. Kostyk, R. D'Amato, R. Sullivan, and P. A. D'Amore. Oxygen-induced retinopathy in the mouse. Investigative ophthalmology & visual science. 35:101-111 (1994)) that involves exposing pups and their nursing mothers to 5 days of hyperoxia (75% oxygen) during P7 through P12 in the wild type C57BL6 (WT) pups. A Plexiglas incubator with an oxygen sensor and feedback system ProOx (Biospherix, Lacona, N.Y.) was used to ensure continuous hyperoxia. Animals were injected intraperitoneally with FG-4592 (10 μg/g), DMOG (200 μg/g) or control PBS in the equivalent volume at P6, P8, and P10. […] Flatmount preparation and lectin (GS-IB4-Alexa568, Life Technologies, Grand Island, N.Y.) staining was performed essentially as described elsewhere (K. M. Connor, N. M. Krah, R. J. Dennison, C. M. Aderman, J. Chen, K. I. Guerin, P. Sapieha, A. Stahl, K. L. Willett, and L. E. Smith. Quantification of oxygen-induced retinopathy in the mouse: a model of vessel loss, vessel regrowth and pathological angiogenesis. Nat Protoc. 4:1565-1573 (2009); A. Stahl, K. M. Connor, P. Sapieha, K. L. Willett, N. M. Krah, R. J. Dennison, J. Chen, K. I. Guerin, and L. E. Smith. Computer-aided quantification of retinal neovascularization. Angiogenesis. 12:297-301 (2009)). Retinas were dissected using four radial cuts, and flatmounted onto glass slides with Vectashield (Vector Labs, Burlingame, Calif.). All animal procedures were performed in accordance with the Cleveland Clinic Institutional Animal Care and Use Committee.
For quantitative analysis of avascular area, vascular tortuosity, and tufting, retinal images were batch processed using a customized macro and algorithms generated in Image-Pro Plus 7.0 (Media Cybernetics, Silver Spring, Md.) as previously described (J. E. Sears, G. Hoppe, Q. Ebrahem, and B. Anand-Apte. Prolyl hydroxylase inhibition during hyperoxia prevents oxygen-induced retinopathy. Proceedings of the National Academy of Sciences of the United States of America. 105:19898-19903 (2008)).
FG-4592 was solubilized as a stock solution of […] in DMSO, which was then diluted 50 times in PBS to a concentration of 1 μg/microliter to facilitate a final dose of 10 μg/g body weight of each mouse pup. Three injections were administered during the hyperoxic phase of oxygen-induced retinopathy (OIR) at 48-hour intervals.

[2] = test system: serum erythropoietin (Epo), a HIF-regulated gene product; experiment: Immunoblot of serum erythropoietin (Epo) response after single intraperitoneal injection; assay type: in vivo; settings: P8 mouse pups, serum 6 hours after a single intraperitoneal injection
EPO = experiment: Serum EPO ELISA; assay type: in vivo; settings: P8 mouse pups
Protocol: (§1) Wild-type (WT) and HIF-1α knock-out (KO) P8 mouse pups were injected with 10 μg/g FG-4592 and, following indicated periods of time, the pups were anesthetized by ketamine/xylazine, blood was drawn using heparinized 27-gauge needle and syringe. Serum was diluted 1:10 (EPO), 1:5 (VEGF) or 1:100 (ANGPTL-3) with sample diluent provided by the manufacturer (R&D Systems, Minneapolis, Minn.). Spectrophotometric measurements of EPO, VEGF, and ANGPTL-3 quantities were obtained according to the manufacturer's instructions.

[3] = test system: Hepatic EPO, VEGFA and ANGPTL3 mRNA; experiment: Reverse transcription and quantitative PCR of hepatic mRNA; assay type: in vivo, mouse; settings: data not shown
Protocol: Tissue from liver, kidney, brain and retina were placed into 1 mL of RNAlater reagent (Qiagen, Germantown, Md.) and stored at −80° C. Total RNA was extracted using RNeasy kit (Qiagen) and measured using NanoDrop and standard spectrophotometric parameters. One μg of total RNA from each sample was retrotranscripted to cDNA using QuantiTect Reverse Transcription Kit (Qiagen). One μl of cDNA samples was used as template for amplification reactions carried out with the QuantiTect SYBR Green PCR kit (Qiagen) following the manufacturer's instructions. PCR amplifications were performed in a 7900HT Fast Real-Time PCR system (Applied Biosystems, Foster City, Calif.) and quantitative PCR data analysis was performed with RQ Managed software (Applied Biosystems).

VEGF = experiment: Serum VEGF ELISA; assay type: in vivo; settings: P8 mouse pups
Protocol: as §1

HIF-1α = experiment: Western blot of HIF-1α protein in organ lysates; assay type: in vivo; settings: mouse pups, versus PBS
Protocol: Mice were sacrificed by ketamine/xylazine overdose, organs collected and placed in RIPA buffer (200 μL per 50 mg of tissue, pH 7.0) containing protease inhibitors Complete (Roche, Indianapolis, Ind.), disrupted using a tight fitting microtube pestle, and centrifuged to remove particulate matter. A Pierce BCA protein assay (Thermo Scientific, Rockford, Ill.) was used to measure protein concentrations. Lysates were subjected to 4-20% SDS-PAGE and electro-transferred to PVDF membranes for immunoblotting. Membranes were blocked with 5% nonfat dried milk in Tris-buffered saline and 0.1% Tween-20, then probed with anti-HIF-1α, antibody (Cayman Chemical, Ann Arbor, Mich.) overnight. After washing and secondary antibody hybridization, membranes were exposed by chemiluminescence (Western Lighting, PerkinElmer, Waltham, Mass.).
FIG. 5A is images of Western blots detecting HIF-1α protein in organ lysates derived from pups treated with PBS or FG-4592, and FIG. 5B is a graph of integrated optical density of the immunoblots shown in FIG. 5A.

[4] = test system: angiopoietin-like protein 3 (ANGPTL-3); experiment: Serum ANGPTL-3 ELISA; assay type: in vivo; settings: P8 mouse pups
Protocol: as §1

[5] = test system: HIF prolyl hydroxylase (PHD); experiment: In vivo localization of PHD inhibition in luc-ODD mouse (luminescence imaging, luciferase activity in organ lysates); settings: for localization of luminescence, whole animal imaging: luc-ODD mouse
Protocol: Gt(ROSA)26Sor^tml(Luc)Kael (luc-ODD) mice were obtained from the Jackson Laboratory (Bar Harbor, Me.). Pups were given i.p. injections of 10 μg/g FG-4592 at indicated periods of time prior to live imaging. Mice were injected with mixture of 100 mg/kg ketamine, 10 mg/kg xylazine and 50 mg/kg luciferin and placed in a light-tight chamber connected to a supercooled, charge-coupled camera. Photons were collected for 15 seconds using IVI 100 Imaging System (PerkinElmer, Waltham, Mass.).
The luc-ODD mouse has a transgene comprised of luciferase fused to the ODD and, therefore, serves as a reporter gene in vivo of where hydroxylation of the ODD is inhibited, observed as luminescence in tissue lysates and whole animal imaging.
Quantitation of the effect shown in FIG. 4A supports the specificity of this effect in tissue lysates.

[6] = murine OIR model, 10 eyes each group

Compound | reduction of capillary dropout in retinal flatmounts (percent avascular area of total retinal area) ([1]; versus PBS) [fold] | potency relative to DMOG, quantification of serum Epo immunoblot [2] | circulating (serum) levels of EPO (EPO; 10 μg/g FG-4592 i.p.) | time of peak EPO production after treatment (EPO; time-course study) [h] | Hepatic EPO, VEGFA and ANGPTL3 mRNA levels and kinetics [3] | preservation of retinal vessels in retinal flatmounts ([1]; 10 μg/g i.p. at P6, P8, P10 in 75% hyperoxia, sacrificed P17, versus PBS) | benefit in direct comparison with DMOG ([1]; OIR model, 10 μg/g FG-4592 versus 200 μg/g DMOG) | ischemic, hypoxic retina (isolectin and Hypoxyprobe staining) ([1]; P17, versus sham PBS injection) | rate of decrease of central avascular region (retinovascular repair) ([1]; flatmounts at P12, P15, P17, treated versus PBS) | inhibition of capillary drop-out compared with DMOG [1, 6] | inhibition of neovascularization subsequent to capillary drop-out compared with DMOG [1, 6] | serum levels of VEGF (VEGF; 10 μg/g FG-4592 i.p.) | time of peak VEGF levels after treatment (VEGF; time-course study) [h] | organ specific stabilization of HIF-1α protein (integrated optical density) (HIF-1α) | elevation of ANGPTL-3 in serum ([4]; 10 μg/g FG-4592 i.p.) [fold] | time course of ANGPTL-3 induction ([4]; time-course study) | organ specificity, luciferase activity (RLU/mg tissue protein) in organ lysates ([5]; luc-ODD mice, s.c. or i.p. injection, versus PBS) | localization of luminescence, whole animal imaging ([5]; i.p. injection) | localization of luminescence, whole animal imaging ([5]; s.c. injection) | duration of HIF PHD inhibition ([5]; single intraperitoneal injection, time course in kidney and lung)
COC(=O)CNC(=O)C(=O)OC [DMOG, dimethyl oxaloylglycine] | 3 | – | – | – | – | – | – | – | – | – | – | – | – | – | – | – | – | – | – | –
Cc1nc(C(=O)NCC(=O)O)c(O)c2ccc(Oc3ccccc3)cc12 [FG-4592] | 3 | approximately fifteen times more potent than DMOG | marked increase | 3 | mirrored their corresponding serum protein concentrations | preservation of retinal vessels | at least the same benefit as DMOG, with a trend to superiority of FG-4592 | decrease in ischemic, hypoxic retina at P17 | identical rates of decrease of this region in treated and untreated animals | inhibits capillary drop-out better than DMOG | inhibits neovascularization subsequent to capillary drop-out better than DMOG | moderate but statistically significant increase | 6 | maximal increase in HIF-1α in liver and kidney lysates | 6 | sustained induction, even 24 hours after FG-4592 treatment | specificity of FG-4592 for liver and kidney | liver- and kidney-specific luminescence | liver- and kidney-specific luminescence | at least 24 hours
